According to patent US7893110B2 (Givaudan S.A., priority 2005, dated 2011):

Tests used:
mouth [1] = assay: Application in mouthwash: cooling sensation; type: in vivo; conditions: mouthwash with 50 mL of 1% sol. in alcohol per liter, plus peppermint oil; 30 mL put in the mouth, swished, gargled and spit out
Method: [table] All the ingredients are mixed. 30 mL of obtained solution is put in the mouth, swished around, gargled and spit out.

mouth [2] = assay: Application in toothpaste: cooling sensation felt by panelist; type: in vivo; conditions: toothgel with 2.5 g of 2% sol. in PG per 100 g, plus peppermint oil; 1 g brushed on teeth, mouth rinsed with water
From the text: [table] The chemicals are mixed in the toothgel, and 1 g of the toothgel is put on a toothbrush and a panelist's teeth are brushed. The mouth is rinsed with water and the water is spit out.

SMILES | cooling sensation in the mouth (mouth [1]) | cooling sensation in the mouth (mouth [2])
CC(C)(C)C1CCCCC1C(=O)Nc1ccc(CO)cc1 (centres unmarked) [Example 2L, 2-tert-Butyl-cyclohexanecarboxylic acid (4-hydroxymethyl-phenyl)-amide] | strong cooling sensation | 
COc1ccc(NC(=O)C23CC4CC(CC(C4)C2)C3)cc1 [Example 2F, Adamantane-1-carboxylic acid (4-methoxy-phenyl)-amide] |  | cooling sensation
